Assay results as given in ChEMBL document CHEMBL6109109, “Fatty acid binding protein 5 inhibitors as novel anticancer agents against metastatic castration-resistant prostate cancer” (Bioorg Med Chem, 2025).

What was measured:
PC-3 [1] = assay: Synergistic anticancer activity against human PC-3 cells assessed as cell growth inhibition at 5 uM measured after 72 hrs in presence of 0.01 uM of topotecan by MTT assay relative to control; assay type: functional; settings: read-out: GI
PC-3 [2] = assay: Cytotoxicity against human PC-3 cells assessed as cell growth inhibition at 10 uM measured after 72 hrs by MTT assay relative to control; assay type: functional; settings: read-out: GI
PC-3 [3] = assay: Synergistic anticancer activity against human PC-3 cells assessed as cell growth inhibition at 5 uM measured after 72 hrs in presence of 0.00001 uM of topotecan by MTT assay relative to control; assay type: functional; settings: read-out: GI
PC-3 [4] = assay: Cytotoxicity against human PC-3 cells assessed as reduction in cell viability measured after 72 hrs by MTT assay; assay type: functional, cell-based; settings: PC-3, 72 h
PC-3 [5] = assay: Synergistic anticancer activity against human PC-3 cells assessed as cell growth inhibition at 20 uM measured after 72 hrs in presence of 0.01 uM of topotecan by MTT assay relative to control; assay type: functional; settings: read-out: GI
[6] = Cytotoxicity against mouse RCaP cells assessed as cell growth inhibition at 10 uM measured after 72 hrs by MTT assay relative to control; assay type: functional; settings: read-out: GI
PC-3 [7] = assay: Synergistic anticancer activity against human PC-3 cells assessed as cell growth inhibition at 5 uM measured after 72 hrs in presence of 10 uM of topotecan by MTT assay relative to control; assay type: functional; settings: read-out: GI
PC-3 [8] = assay: Induction of apoptosis in human PC-3 cells assessed as early apoptotic cells at 15 uM measured after 72 hrs by Annexin V-FITC/propidium iodide staining based FACS analysis (reference value: 0.54%); assay type: functional
[9] = Cytotoxicity against human WI-38 cells assessed as reduction in cell viability measured after 72 hrs by MTT assay; assay type: toxicity, cell-based
PC-3 [10] = assay: Cytotoxicity against human PC-3 cells assessed as cell growth inhibition at 5 uM measured after 72 hrs by MTT assay relative to control; assay type: functional; settings: read-out: GI
[11] = Synergistic anticancer activity against mouse RCaP cells assessed as cell growth inhibition at 20 uM measured after 72 hrs in presence of 0.0001 uM of topotecan by MTT assay relative to control; assay type: functional; settings: read-out: GI
PC-3 [12] = assay: Synergistic anticancer activity against human PC-3 cells assessed as cell growth inhibition at 10 uM measured after 72 hrs in presence of 0.0001 uM of topotecan by MTT assay relative to control; assay type: functional; settings: read-out: GI
[13] = Cytotoxicity against mouse RCaP cells assessed as cell growth inhibition at […] measured after 72 hrs by MTT assay relative to control; assay type: functional; settings: dose 2.5 µM, read-out: GI
[14] = Synergistic anticancer activity against mouse RCaP cells assessed as cell growth inhibition at […] measured after 72 hrs in presence of 0.001 uM of topotecan by MTT assay relative to control; assay type: functional; settings: dose 2.5 µM, read-out: GI
[15] = Synergistic anticancer activity against mouse RCaP cells assessed as cell growth inhibition at […] measured after 72 hrs in presence of 0.1 uM of topotecan by MTT assay relative to control; assay type: functional; settings: dose 2.5 µM, read-out: GI
[16] = Synergistic anticancer activity against mouse RCaP cells assessed as cell growth inhibition at 20 uM measured after 72 hrs in presence of 1 uM of topotecan by MTT assay relative to control; assay type: functional; settings: read-out: GI
PC-3 [17] = assay: Synergistic anticancer activity against human PC-3 cells assessed as cell growth inhibition at 10 uM measured after 72 hrs in presence of 0.001 uM of topotecan by MTT assay relative to control; assay type: functional; settings: read-out: GI
PC-3 [18] = assay: Synergistic anticancer activity against human PC-3 cells assessed as cell growth inhibition at 5 uM measured after 72 hrs in presence of 0.0001 uM of topotecan by MTT assay relative to control; assay type: functional; settings: read-out: GI
[19] = Synergistic anticancer activity against mouse RCaP cells assessed as cell growth inhibition at 20 uM measured after 72 hrs in presence of 0.001 uM of topotecan by MTT assay relative to control; assay type: functional; settings: read-out: GI
[20] = Synergistic anticancer activity against mouse RCaP cells assessed as cell growth inhibition at […] measured after 72 hrs in presence of 0.01 uM of topotecan by MTT assay relative to control; assay type: functional; settings: dose 2.5 µM, read-out: GI
[21] = Synergistic anticancer activity against mouse RCaP cells assessed as cell growth inhibition at 5 uM measured after 72 hrs in presence of 1 uM of topotecan by MTT assay relative to control; assay type: functional; settings: read-out: GI
[22] = Synergistic anticancer activity against mouse RCaP cells assessed as cell growth inhibition at 20 uM measured after 72 hrs in presence of 0.1 uM of topotecan by MTT assay relative to control; assay type: functional; settings: read-out: GI
[23] = Synergistic anticancer activity against mouse RCaP cells assessed as cell growth inhibition at 10 uM measured after 72 hrs in presence of 0.01 uM of topotecan by MTT assay relative to control; assay type: functional; settings: read-out: GI
[24] = Synergistic anticancer activity against mouse RCaP cells assessed as cell growth inhibition at 10 uM measured after 72 hrs in presence of 1 uM of topotecan by MTT assay relative to control; assay type: functional; settings: read-out: GI
PC-3 [25] = assay: Induction of apoptosis in human PC-3 cells assessed as necrotic cells at 15 uM measured after 72 hrs by Annexin V-FITC/propidium iodide staining based FACS analysis (reference value: 0.11%); assay type: functional
PC-3 [26] = assay: Induction of apoptosis in human PC-3 cells assessed as late apoptotic cells at 15 uM measured after 72 hrs by Annexin V-FITC/propidium iodide staining based FACS analysis (reference value: 1.73%); assay type: functional
[27] = Synergistic anticancer activity against mouse RCaP cells assessed as cell growth inhibition at […] measured after 72 hrs in presence of 10 uM of topotecan by MTT assay relative to control; assay type: functional; settings: dose 2.5 µM, read-out: GI
PC-3 [28] = assay: Induction of apoptosis in human PC-3 cells assessed as viable cells at 15 uM measured after 72 hrs by Annexin V-FITC/propidium iodide staining based FACS analysis (reference value: 97.62%); assay type: functional; settings: read-out: Activity
[29] = Cytotoxicity against mouse RCap cells assessed as reduction in cell viability measured after 72 hrs by MTT assay; assay type: functional, cell-based
[30] = Binding affinity to FABP5 (unknown origin); design: species or system Homo sapiens
PC-3 [31] = assay: Synergistic anticancer activity against human PC-3 cells assessed as cell growth inhibition at 0.625 uM measured after 72 hrs in presence of 0.1 uM of topotecan by MTT assay relative to control; assay type: functional; settings: read-out: GI
PC-3 [32] = assay: Cytotoxicity against human PC-3 cells assessed as cell growth inhibition at 1.25 uM measured after 72 hrs by MTT assay relative to control; assay type: functional; settings: read-out: GI
[33] = Synergistic anticancer activity against mouse RCaP cells assessed as cell growth inhibition at 0.625 uM measured after 72 hrs in presence of 0.01 uM of topotecan by MTT assay relative to control; assay type: functional; settings: read-out: GI
PC-3 [34] = assay: Synergistic anticancer activity against human PC-3 cells assessed as cell growth inhibition at 0.625 uM measured after 72 hrs in presence of 0.01 uM of topotecan by MTT assay relative to control; assay type: functional; settings: read-out: GI
[35] = Synergistic anticancer activity against mouse RCaP cells assessed as cell growth inhibition at 1.25 uM measured after 72 hrs in presence of 10 uM of topotecan by MTT assay relative to control; assay type: functional; settings: read-out: GI
[36] = Cytotoxicity against mouse RCaP cells assessed as cell growth inhibition at 1.25 uM measured after 72 hrs by MTT assay relative to control; assay type: functional; settings: read-out: GI

SMILES	inhibition of growth at 5 µM (PC-3 [1]) [%]	inhibition of growth at 10 µM (PC-3 [2]) [%]	inhibition of growth at 5 µM (PC-3 [3]) [%]	IC50 (PC-3 [4]) [µM]	inhibition of growth at 20 µM (PC-3 [5]) [%]	inhibition of growth at 10 µM [6] [%]	inhibition of growth at 5 µM (PC-3 [7]) [%]	IC50 at 72 h [9] [µM]	inhibition of growth at 5 µM (PC-3 [10]) [%]	inhibition of growth at 20 µM [11] [%]	inhibition of growth at 10 µM (PC-3 [12]) [%]	inhibition of growth at […] [13] [%]	inhibition of growth at […] [14] [%]	inhibition of growth at […] [15] [%]	inhibition of growth at 20 µM [16] [%]	inhibition of growth at 10 µM (PC-3 [17]) [%]	inhibition of growth at 5 µM (PC-3 [18]) [%]	inhibition of growth at 20 µM [19] [%]	inhibition of growth at […] [20] [%]	inhibition of growth at 5 µM [21] [%]	further results
COc1ccccc1[C@H]1[C@H](C(=O)O)[C@H](c2ccccc2OC)[C@H]1C(=O)OCC1c2ccccc2-c2ccccc21	34.6	30.1	24.6	10.5	99.8	64.9	86.4	23	7.5	97.5	59.3	5.2	6.8	86.6	99.1	60.9	27.5	98.5	11.7	99	Activity (PC-3 [8]): 5.38%; inhibition of growth at 20 µM [22]: 99.9%; inhibition of growth at 10 µM [23]: 75.2%; inhibition of growth at 10 µM [24]: 98.3%; Activity (PC-3 [25]): 0.3%; Activity (PC-3 [26]): 5.63%; inhibition of growth at […] [27]: 99.6%; viability at 15 µM (PC-3 [28]): 88.7%
O=C(O)[C@H]1[C@H](c2ccccc2)[C@H](C(=O)Oc2cc(-c3ccc4c(c3)OCO4)ccc2-c2ccccc2)[C@H]1c1ccccc1	35.2	57.5	28.5	9.89	98.2	58.6	80.8	19.5	28.4	96.7	78.5	5.2	6.33	82	98.8	81.1	30.9	97.8	12.2	97.9	IC50 [29]: 12.3 µM; Ki [30]: 0.66 µM; inhibition of growth at 20 µM [22]: 98.9%; inhibition of growth at 10 µM [23]: 71.7%; inhibition of growth at 10 µM [24]: 96%; inhibition of growth at […] [27]: 99.9%
COc1ccccc1[C@H]1[C@H](C(=O)O)[C@H](c2ccccc2OC)[C@H]1C(=O)Oc1cc(-c2ccc3c(c2)OCO3)ccc1-c1ccccc1	57.7	66.4	44.3	6.52	98.7	78.2	92.5	10.8	30.7	100	67.7	2.8	1.77	89.9	100	72.4	44.1	100	20.6	97.9	IC50 [29]: 3.44 µM; inhibition of growth at 0.625 µM (PC-3 [31]): 69.4%; inhibition of growth at 1.25 µM (PC-3 [32]): -2.3%; inhibition of growth at 0.625 µM [33]: 10%; inhibition of growth at 0.625 µM (PC-3 [34]): 48%; Ki [30]: 0.65 µM; Activity (PC-3 [8]): 20.86%; inhibition of growth at 1.25 µM [35]: 99.2%; inhibition of growth at 1.25 µM [36]: -1.17%; inhibition of growth at 20 µM [22]: 99.6%; inhibition of growth at 10 µM [23]: 87.8%; inhibition of growth at 10 µM [24]: 94.8%; Activity (PC-3 [25]): 1.25%; Activity (PC-3 [26]): 52.11%; inhibition of growth at […] [27]: 98.9%; viability at 15 µM (PC-3 [28]): 25.8%
